Reference: ChEMBL document CHEMBL1201862, “PubChem BioAssay data set” (2004)
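Dose response: 5 concentrations. Exposure: 48 h. Format: 96-well plates. Endpoint: linear interpolation; highest concentration if not reached. Here, GI50 denotes the concentration required for 50% inhibition of growth.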 Calls of active or inactive are those of the source. Rule as the data show it: active = GI50 up to about 1.1 µM and inactive = higher.

Tests used:
Experiment in all cases: NCI anticancer screen, dose series, 48 h
[1] = test system: OVCAR-8
[2] = test system: RXF 393
[3] = test system: EKVX
[4] = test system: M14
[5] = test system: HCT-116
[6] = test system: M19-MEL
[7] = test system: KM12
[8] = test system: SW-620
[9] = test system: CCRF-CEM
[10] = test system: SF-295
[11] = test system: DMS-114
[12] = test system: NCI-H460
[13] = test system: SR
[14] = test system: HL-60
[15] = test system: COLO 205
[16] = test system: SK-MEL-2
[17] = test system: SF-268
[18] = test system: TK-10
[19] = test system: SN12C
[20] = test system: ACHN
[21] = test system: SNB-75
[22] = test system: SK-MEL-5
[23] = test system: DMS-273
[24] = test system: HOP-18
[25] = test system: SNB-78
[26] = test system: UO-31
[27] = test system: LXFL 529
[28] = test system: SK-OV-3
[29] = test system: RPMI-8226
[30] = test system: U-251
[31] = test system: 786-0
[32] = test system: KM-20L2
[33] = test system: HCT-15
[34] = test system: A549
[35] = test system: Malme-3M
[36] = test system: SK-MEL-28
[37] = test system: HT-29
[38] = test system: NCI-H23
[39] = test system: SNB-19
[40] = test system: MOLT-4
[41] = test system: XF498
[42] = test system: UACC-257
[43] = test system: NCI-H226
[44] = test system: HOP-62
[45] = test system: LOX IMVI
[46] = test system: K562
[47] = test system: OVCAR-4
[48] = test system: UACC-62
[49] = test system: SF-539
[50] = test system: DLD-1
[51] = test system: NCI-H522
[52] = test system: CAKI-1
[53] = test system: A498
[54] = test system: HOP-92
[55] = test system: OVCAR-3
[56] = test system: OVCAR-5
[57] = test system: HCC 2998
[58] = test system: IGROV-1

With `CCCCCCCCCCCC(=O)C1=C(O)CCC(O)C1=O` (configuration not stated) the GI50 [1] was 10.1 µM (inactive), the GI50 [2] was 35.1 µM (inactive) and the GI50 [3] was 5.86 µM (inactive). For the same compound, the GI50 [5] was 21.3 µM (inactive), the GI50 [6] was 19.5 µM (inactive) and the GI50 [7] was 17.9 µM (inactive). The GI50 [8] was 13.2 µM (inactive), the GI50 [9] was 8.18 µM (inactive) and the GI50 [10] was 8.17 µM (inactive). For the same compound, the GI50 [49] was 19.1 µM (inactive), the GI50 [11] was 14.2 µM (inactive) and the GI50 [50] was 18.2 µM (inactive). For the same compound, the GI50 [12] was 15.7 µM (inactive), the GI50 [14] was 13.5 µM (inactive) and the GI50 [15] was 15.1 µM (inactive). For the same compound, the GI50 [51] was 12.1 µM (inactive), the GI50 [16] was 11.9 µM (inactive) and the GI50 [17] was 27.2 µM (inactive). For the same compound, the GI50 [18] was 18.4 µM (inactive), the GI50 [19] was 21.8 µM (inactive) and the GI50 [20] was 19.4 µM (inactive). The GI50 [21] was 21.6 µM (inactive), the GI50 [22] was 10 µM (inactive) and the GI50 [52] was 23 µM (inactive). For the same compound, the GI50 [23] was 7.29 µM (inactive), the GI50 [24] was 25.5 µM (inactive) and the GI50 [25] was 21.9 µM (inactive). For the same compound, the GI50 [26] was 19.7 µM (inactive), the GI50 [27] was 16.6 µM (inactive) and the GI50 [28] was 26.8 µM (inactive). For the same compound, the GI50 [53] was 16.2 µM (inactive), the GI50 [30] was 14.6 µM (inactive) and the GI50 [54] was 17.7 µM (inactive). For the same compound, the GI50 [31] was 19.4 µM (inactive), the GI50 [55] was 10.8 µM (inactive) and the GI50 [32] was 11.7 µM (inactive). The GI50 [33] was 8.89 µM, the GI50 [34] was 29.9 µM (inactive) and the GI50 [35] was 17 µM (inactive). The GI50 [36] was 16.1 µM (inactive), the GI50 [37] was 15.6 µM (inactive) and the GI50 [38] was 3.48 µM (inactive). For the same compound, the GI50 [39] was 9.08 µM (inactive), the GI50 [40] was 17.9 µM (inactive) and the GI50 [41] was 10.7 µM (inactive). For the same compound, the GI50 [56] was 27.7 µM (inactive), the GI50 [57] was 22 µM (inactive) and the GI50 [42] was 14.7 µM (inactive). For the same compound, the GI50 [43] was 18 µM (inactive), the GI50 [44] was 15.2 µM (inactive) and the GI50 [45] was 11.3 µM (inactive). The GI50 [58] was 19.9 µM (inactive), the GI50 [46] was 7.6 µM (inactive) and the GI50 [47] was 18.5 µM (inactive). The GI50 [48] was 10.8 µM (inactive).
In the case of `CC(=O)CC(=O)N(CCN(C(=O)CC(C)=O)c1ccccc1)c1ccccc1`, the GI50 [1] is reported as > 100 µM (inactive), the GI50 [2] is reported as > 100 µM (inactive) and the GI50 [3] is reported as > 100 µM (inactive). The GI50 [4] was > 100 µM (inactive), the GI50 [5] was > 100 µM (inactive) and the GI50 [6] was > 100 µM (inactive). For the same compound, the GI50 [7] was > 100 µM (inactive), the GI50 [8] was > 100 µM (inactive) and the GI50 [9] was 58.2 µM (inactive). The GI50 [10] was > 100 µM (inactive), the GI50 [49] was > 100 µM (inactive) and the GI50 [11] was > 100 µM (inactive). For the same compound, the GI50 [50] was > 100 µM (inactive), the GI50 [12] was > 100 µM (inactive) and the GI50 [14] was 43.4 µM (inactive). For the same compound, the GI50 [15] was > 100 µM (inactive), the GI50 [51] was 84.7 µM (inactive) and the GI50 [16] was > 100 µM (inactive). The GI50 [17] was > 100 µM (inactive), the GI50 [18] was > 100 µM (inactive) and the GI50 [19] was > 100 µM (inactive). For the same compound, the GI50 [20] was > 100 µM (inactive), the GI50 [21] was 51.8 µM (inactive) and the GI50 [22] was > 100 µM (inactive). For the same compound, the GI50 [52] was > 100 µM (inactive), the GI50 [24] was > 100 µM (inactive) and the GI50 [25] was > 100 µM (inactive). For the same compound, the GI50 [26] was > 100 µM (inactive), the GI50 [27] was > 100 µM (inactive) and the GI50 [28] was > 100 µM (inactive). For the same compound, the GI50 [29] was 72.9 µM (inactive), the GI50 [53] was > 100 µM (inactive) and the GI50 [30] was > 100 µM (inactive). The GI50 [54] was > 100 µM (inactive), the GI50 [31] was > 100 µM (inactive) and the GI50 [55] was > 100 µM (inactive). The GI50 [32] was > 100 µM (inactive), the GI50 [34] was > 100 µM (inactive) and the GI50 [35] was > 100 µM (inactive). For the same compound, the GI50 [36] was > 100 µM (inactive), the GI50 [38] was > 100 µM (inactive) and the GI50 [39] was > 100 µM (inactive). The GI50 [40] was > 100 µM (inactive), the GI50 [41] was > 100 µM (inactive) and the GI50 [56] was > 100 µM (inactive). For the same compound, the GI50 [57] was > 100 µM (inactive), the GI50 [42] was 32.2 µM (inactive) and the GI50 [43] was > 100 µM (inactive). For the same compound, the GI50 [44] was > 100 µM (inactive), the GI50 [45] was > 100 µM (inactive) and the GI50 [58] was > 100 µM (inactive). For the same compound, the GI50 [46] was > 100 µM (inactive), the GI50 [47] was > 100 µM (inactive) and the GI50 [48] was > 100 µM (inactive).
